Measurements: DBAASP
≈ marks a conversion by molar mass, not a printed value. Where “and” joins values, the source holds several entries; their conditions need not be identical. Equal values may be shown once.

Columns and labels:
Experiment in all cases: ≥ marks a high value that may be exact or a test limit, other limits are often not marked, values filed in µg/mL are converted to µM
[1] = tested on: Bacillus subtilis ATCC 6633
[2] = tested on: Staphylococcus aureus FDA 209P
[3] = tested on: Acinetobacter calcoaceticus
Candida albicans = tested on: Candida albicans
[4] = tested on: Enterococcus faecalis ATCC 29212
[5] = tested on: Escherichia coli ATCC 25922
[6] = tested on: Pseudomonas aeruginosa ATCC 27853
[7] = tested on: Pseudomonas aeruginosa wt
Pseudomonas aeruginosa = tested on: Pseudomonas aeruginosa
[8] = tested on: Staphylococcus aureus ATCC 25923
Staphylococcus aureus = tested on: Staphylococcus aureus
Streptococcus agalactiae = tested on: Streptococcus agalactiae
[9] = tested on: Staphylococcus aureus ATCC BAA-1556
Escherichia coli UB1005 = tested on: Escherichia coli UB1005
[10] = tested on: Pseudomonas aeruginosa H374
[11] = tested on: Pseudomonas aeruginosa H547
[12] = tested on: Pseudomonas aeruginosa H744
[13] = tested on: Pseudomonas aeruginosa K799
[14] = tested on: Pseudomonas aeruginosa Z61
[15] = tested on: Salmonella enterica subsp. enterica serovar Typhimurium ATCC 14028s
Aspergillus fumigatus = tested on: Aspergillus fumigatus
Bibersteinia trehalosi = tested on: Bibersteinia trehalosi
[16] = tested on: Corynebacterium pseudotuberculosis ATCC 19410
Klebsiella pneumoniae = tested on: Klebsiella pneumoniae
[17] = tested on: Mannheimia haemolytica Serovar 1
[18] = tested on: Mannheimia haemolytica Serovar 2
[19] = tested on: Mannheimia haemolytica Serovar 6
Pasteurella multocida = tested on: Pasteurella multocida
[20] = tested on: Pseudomonas aeruginosa PAO1
[21] = tested on: Salmonella enterica subsp. arizonae
[22] = tested on: Achromobacter xylosoxidans
[23] = tested on: Pseudomonas aeruginosa M1251
[24] = tested on: Pseudomonas aeruginosa M1426
[25] = tested on: Pseudomonas aeruginosa M76
[26] = tested on: Pseudomonas aeruginosa M917
[27] = tested on: Pseudomonas aeruginosa R70
Pseudomonas fluorescens = tested on: Pseudomonas fluorescens
Ralstonia pickettii = tested on: Ralstonia pickettii
[28] = tested on: Salmonella enterica serovar Typhimurium
[29] = tested on: Stenotrophomonas maltophilia

CC[C@H](C)[C@H](NC(=O)[C@@H](N)C(C)C)C(=O)N[C@@H](CC(=O)O)C(=O)N[C@@H](CC(=O)O)C(=O)N[C@@H](CC(C)C)C(=O)N[C@@H](CCCCN)C(=O)N[C@@H](CCCCN)C(=O)N[C@H](C(=O)N[C@@H](C)C(=O)N[C@@H](CCCCN)C(=O)N[C@@H](CCCCN)C(=O)N[C@H](C(=O)N[C@@H](CCCN=C(N)N)C(=O)N[C@@H](CCCN=C(N)N)C(=O)N[C@@H](CCC(=O)O)C(=O)N[C@@H](CC(C)C)C(=O)N[C@@H](CC(C)C)C(=O)N[C@@H](CS)C(=O)N[C@@H](CCCCN)C(=O)N[C@@H](CCCCN)C(=O)N[C@@H](Cc1cnc[nH]1)C(=O)N[C@@H](Cc1cnc[nH]1)C(=O)N[C@@H](CCCCN)C(=O)N[C@@H](CCCCN)C(=O)N[C@@H](CC(C)C)C(=O)N[C@@H](CC(N)=O)C(=O)O)C(C)C)C(C)C [VIDDLKKVAKKVRRELLCKKHHKKLN]
MIC [1]: 20.4 µM (≈ 64 µg/mL) | MIC [2]: 11.3 µM (≈ 35.5 µg/mL)

CC[C@H](C)[C@H](NC(=O)[C@H](C)NC(=O)[C@H](CO)NC(=O)[C@@H](NC(=O)[C@H](C)NC(=O)[C@H](CC(N)=O)NC(=O)[C@@H](NC(=O)[C@H](C)NC(=O)[C@H](Cc1cnc[nH]1)NC(=O)[C@@H]1CCCN1C(=O)[C@@H](NC(=O)[C@H](CC(C)C)NC(=O)[C@H](CO)NC(=O)[C@H](CC(C)C)NC(=O)[C@@H](N)Cc1ccccc1)[C@@H](C)CC)[C@@H](C)CC)C(C)C)C(=O)N[C@@H](C)C(=O)N[C@@H](CCCCN)C(=O)N[C@@H](Cc1cnc[nH]1)C(=O)N[C@@H](CC(N)=O)C(N)=O [FLSLIPHAINAVSAIAKHN]
MIC [3]: 7.9 µM (≈ 15.9 µg/mL) | MIC (Candida albicans): 7.9 µM (≈ 15.9 µg/mL) | MIC [4]: 4 µM (≈ 8.06 µg/mL) | MIC [5]: 7.9 µM (≈ 15.9 µg/mL) | MIC [6]: 4 µM (≈ 8.06 µg/mL) | MIC [7]: 3 µM (≈ 6.05 µg/mL) | MIC (Pseudomonas aeruginosa): 31.7 µM (≈ 63.9 µg/mL) | MIC [8]: 7.9 µM (≈ 15.9 µg/mL) | MIC (Staphylococcus aureus): 15.8 µM (≈ 31.8 µg/mL) | MIC (Streptococcus agalactiae): 3.9 µM (≈ 7.86 µg/mL)

CC(C)C[C@H](NC(=O)[C@H](CC(C)C)NC(=O)[C@H](CCCCN)NC(=O)[C@H](CC(C)C)NC(=O)[C@H](CC(C)C)NC(=O)[C@H](CC(C)C)NC(=O)[C@H](CCCCN)NC(=O)[C@@H](N)CC(C)C)C(N)=O [LKLLLKLL]
MIC [9]: ≥ 100 µM

CC[C@H](C)[C@H](NC(=O)[C@H](CC(C)C)NC(=O)[C@H](C)NC(=O)[C@@H]1CCCN1C(=O)[C@H](CC(C)C)NC(=O)CNC(=O)[C@@H](NC(=O)[C@@H](NC(=O)[C@H](CC(C)C)NC(=O)[C@@H](NC(=O)[C@H](CCCCN)NC(=O)[C@H](CO)NC(=O)CNC(=O)CNC(=O)[C@H](CCCCN)NC(=O)[C@@H](NC(=O)[C@H](CC(C)C)NC(=O)[C@H](CC(N)=O)NC(=O)[C@H](CCCCN)NC(=O)[C@@H](NC(=O)[C@H](Cc1ccccc1)NC(=O)[C@H](CCCCN)NC(=O)[C@H](CCCCN)NC(=O)[C@H](Cc1c[nH]c2ccccc12)NC(=O)[C@@H](N)CCCCN)[C@@H](C)CC)[C@@H](C)O)[C@@H](C)CC)[C@@H](C)O)[C@@H](C)O)C(=O)N[C@@H](CO)C(=O)O [KWKKFIKNLTKGGSKILTTGLPALIS]
MIC (Escherichia coli UB1005): 0.703 µM (≈ 2 µg/mL) | MIC [10]: 1.41 µM (≈ 4 µg/mL) | MIC [11]: 5.63 µM (≈ 16 µg/mL) | MIC [12]: 1.41 µM (≈ 4 µg/mL) | MIC [13]: 11.3 µM (≈ 32 µg/mL) | MIC [14]: 6.68 µM (≈ 19 µg/mL) | MIC [15]: 5.63 µM (≈ 16 µg/mL)

CC[C@H](C)[C@H](NC(=O)[C@@H](NC(=O)[C@H](Cc1cnc[nH]1)NC(=O)[C@@H](NC(=O)[C@@H](NC(=O)[C@H](CCCCN)NC(=O)[C@H](CCCN=C(N)N)NC(=O)[C@@H](NC(=O)[C@@H](NC(=O)[C@H](CCCN=C(N)N)NC(=O)[C@@H](N)CCCN=C(N)N)[C@@H](C)CC)[C@@H](C)CC)[C@@H](C)CC)[C@@H](C)CC)[C@@H](C)CC)C(N)=O [RRIIRKIIHII]
MIC (Aspergillus fumigatus): 14 µM (≈ 20 µg/mL) | MIC (Bibersteinia trehalosi): 14 µM (≈ 20 µg/mL) | MIC [16]: 14 µM (≈ 20 µg/mL) | MIC (Klebsiella pneumoniae): 10.5 µM (≈ 15 µg/mL) | MIC [17]: 11.7 µM (≈ 16.7 µg/mL) | MIC [18]: 5.8 µM (≈ 8.29 µg/mL) | MIC [19]: 5.8 µM (≈ 8.29 µg/mL) | MIC (Pasteurella multocida): 14 µM (≈ 20 µg/mL) | MIC [20]: 14 µM (≈ 20 µg/mL) | MIC [21]: 14 µM (≈ 20 µg/mL) | MIC (Staphylococcus aureus): > 14 µM

CC(C)C[C@H](NC(=O)[C@H](C)NC(=O)[C@H](CC(C)C)NC(=O)[C@H](C)NC(=O)[C@H](CC(C)C)NC(=O)[C@H](CCCCN)NC(=O)[C@H](C)NC(=O)[C@H](CC(C)C)NC(=O)[C@H](CCCCN)NC(=O)[C@H](CCCCN)NC(=O)[C@H](C)NC(=O)[C@H](CC(C)C)NC(=O)[C@H](CCCCN)NC(=O)[C@H](C)NC(=O)[C@H](CC(C)C)NC(=O)[C@H](CCCCN)NC(=O)[C@H](CCCCN)NC(=O)[C@H](C)NC(=O)[C@@H](N)C(C)C)C(N)=O [VAKKLAKLAKKLAKLALAL]
MIC [22]: ≥ 32.1 µM | MIC (Candida albicans): 8.03 µM (≈ 16 µg/mL) | MIC (Escherichia coli UB1005): ≥ 32.1 µM | MIC [23]: 4.02 µM (≈ 8 µg/mL) | MIC [24]: 4.02 µM (≈ 8 µg/mL) | MIC [25]: 4.02 µM (≈ 8 µg/mL) | MIC [26]: 8.03 µM (≈ 16 µg/mL) | MIC [20]: 16.1 µM (≈ 32 µg/mL) | MIC [27]: 4.02 µM (≈ 8 µg/mL) | MIC (Pseudomonas aeruginosa): 4.02 µM and 5.68 µM | MIC (Pseudomonas fluorescens): 4.02 µM (≈ 8 µg/mL) | MIC (Ralstonia pickettii): 4.02 µM (≈ 8 µg/mL) | MIC [28]: ≥ 32.1 µM | MIC (Staphylococcus aureus): 16.1 µM (≈ 32 µg/mL) | MIC [29]: 2.01 µM (≈ 4 µg/mL)
